Source: patent US10717733B2, “Haloallylamine indole and azaindole derivative inhibitors of lysyl oxidases and uses thereof” (PHARMAXIS LTD., priority 2016, dated 2020)
pIC50: −log10 of the molar value. Structures can show the parent of a compound that is named as a salt.

Tests used:
Type in all cases: biochemical
Recombinant human MAO-B = Recombinant human MAO-B (Homo sapiens (Human), UniProt P27338); assay: Inhibition of human recombinant MAO-B; conditions: benzylamine 100 μM
In short: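 Recombinant human MAO-B used as enzyme source (0.06 mg/mL, stated concentration). Run as for the human SSAO/VAP-1 assay, except benzylamine substrate at 100 μM.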

Bovine LOX = Bovine LOX (Bos taurus (Bovine), UniProt P33072); assay: LOX inhibition, peroxidase-coupled Amplex Red amine oxidase assay; conditions: 30 min preincubation at 37° C., putrescine substrate
In short: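 Bovine LOX in 1.2 M urea, 50 mM sodium borate pH 8.2 with 1 μM mofegiline and 0.5 mM pargyline; putrescine at twice KM (e.g. 20 mM for LOX) with Amplex Red/HRP. Fluorescence (ex 565/em 590 nm) read kinetically over 30 min at 37–45 °C; IC50 from slopes.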

Human LOXL2 = Human LOXL2 (Homo sapiens (Human), UniProt Q9Y4K0); assay: LOXL2 inhibition, peroxidase-coupled Amplex Red amine oxidase assay; conditions: 30 min preincubation at 37° C., putrescine substrate
In short: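 Enzyme in 1.2 M urea, 50 mM sodium borate pH 8.2 with 1 μM mofegiline and 0.5 mM pargyline, preincubated 30 min at 37° C with compound (11-point CRC). Putrescine at twice KM (10 mM for LOXL2) with Amplex Red/HRP; fluorescence (ex 565, em 590) read kinetically 30 min; IC50 from slopes.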

Chain of Bovine LOX (P33072 170-418): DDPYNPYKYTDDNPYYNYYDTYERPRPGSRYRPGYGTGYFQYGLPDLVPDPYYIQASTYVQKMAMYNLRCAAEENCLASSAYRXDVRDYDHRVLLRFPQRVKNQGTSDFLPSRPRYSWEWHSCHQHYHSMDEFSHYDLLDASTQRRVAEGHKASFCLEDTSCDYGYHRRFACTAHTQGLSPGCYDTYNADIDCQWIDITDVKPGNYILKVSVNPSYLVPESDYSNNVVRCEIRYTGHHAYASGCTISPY
Chain of Human LOXL2 (Q9Y4K0 26-774): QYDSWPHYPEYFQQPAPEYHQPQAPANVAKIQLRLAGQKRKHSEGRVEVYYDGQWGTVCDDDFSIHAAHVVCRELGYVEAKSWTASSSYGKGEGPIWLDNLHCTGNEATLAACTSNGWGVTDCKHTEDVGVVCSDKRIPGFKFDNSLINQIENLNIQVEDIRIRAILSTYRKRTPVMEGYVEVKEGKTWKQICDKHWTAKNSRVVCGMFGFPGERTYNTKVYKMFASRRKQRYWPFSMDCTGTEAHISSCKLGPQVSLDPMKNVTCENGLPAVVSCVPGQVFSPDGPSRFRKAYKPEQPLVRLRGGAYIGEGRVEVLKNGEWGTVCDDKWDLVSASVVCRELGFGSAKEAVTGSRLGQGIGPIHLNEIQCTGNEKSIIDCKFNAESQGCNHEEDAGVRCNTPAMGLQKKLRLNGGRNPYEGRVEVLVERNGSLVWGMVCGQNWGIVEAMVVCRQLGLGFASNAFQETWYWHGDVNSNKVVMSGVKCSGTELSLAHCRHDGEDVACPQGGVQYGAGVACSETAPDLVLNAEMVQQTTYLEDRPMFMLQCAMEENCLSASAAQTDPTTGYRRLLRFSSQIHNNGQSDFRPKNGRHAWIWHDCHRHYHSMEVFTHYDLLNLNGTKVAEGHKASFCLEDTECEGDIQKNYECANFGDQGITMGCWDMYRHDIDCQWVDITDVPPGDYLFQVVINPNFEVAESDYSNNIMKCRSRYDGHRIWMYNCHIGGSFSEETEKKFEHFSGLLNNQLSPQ
Chain of Recombinant human MAO-B (P27338 whole entry): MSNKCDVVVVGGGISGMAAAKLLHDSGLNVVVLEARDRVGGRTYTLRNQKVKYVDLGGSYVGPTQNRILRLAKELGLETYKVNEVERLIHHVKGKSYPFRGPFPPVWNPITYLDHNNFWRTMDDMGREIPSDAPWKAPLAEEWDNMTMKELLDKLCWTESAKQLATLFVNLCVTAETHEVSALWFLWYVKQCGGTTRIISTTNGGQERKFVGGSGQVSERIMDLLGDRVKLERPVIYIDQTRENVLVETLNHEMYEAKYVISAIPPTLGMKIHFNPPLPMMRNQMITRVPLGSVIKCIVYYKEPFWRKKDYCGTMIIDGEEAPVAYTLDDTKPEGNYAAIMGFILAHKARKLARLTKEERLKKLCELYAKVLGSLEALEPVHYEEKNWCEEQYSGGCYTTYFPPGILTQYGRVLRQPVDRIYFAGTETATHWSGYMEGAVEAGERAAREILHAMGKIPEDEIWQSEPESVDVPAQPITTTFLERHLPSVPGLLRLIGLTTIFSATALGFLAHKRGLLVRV

SMILES | pIC50 (Recombinant human MAO-B) | pIC50 (Bovine LOX) | pIC50 (Human LOXL2)
Cc1c(-c2cccc(S(=O)(=O)N(C)C)c2)c2ncccc2n1C/C(F)=C/CN [Compound 25, (Z)-3-(1-(4-amino-2-fluorobut-2-en-1-yl)-2-methyl-1H-pyrrolo[3,2-b]pyridin-3-yl)-N,N-dimethylbenzenesulfonamide Dihydrochloride] | < 5.52 | < 6.52 | > 6.52
Cc1ccc2c(n1)c(-c1cccc(S(C)(=O)=O)c1)c(C)n2C/C(F)=C/CN [Compound 112, (Z)-4-(2,5-dimethyl-3-(3-(methylsulfonyl)phenyl)-1H-pyrrolo[3,2-b]pyridin-1-yl)-3-fluorobut-2-en-1-amine Dihydrochloride] | < 5.52 | < 6.52 | > 6.52
CCOC(=O)c1ccc2c(c1)c(-c1cccc(S(=O)(=O)N(C)C)c1)c(C)n2C/C(F)=C/CN [Compound 12, (Z)-ethyl 1-(4-amino-2-fluorobut-2-en-1-yl)-3-(3-(N,N-dimethylsulfamoyl)phenyl)-2-methyl-1H-indole-5-carboxylate] | < 5.52 | < 6.52 | > 6.52
